This passage reports Activity results from ChEMBL document CHEMBL6153038, “Uncovering Hericenones from the Fruiting Bodies of Hericium erinaceus through Interdisciplinary Collaboration” (J Nat Prod, 2025).

The subject of experiment [1] is N2a. Kind of experiment: Neuroprotective activity against thapsigargin-induced ER stress in mouse Neuro2a cells assessed as cell viability at 10 to 100 ug/ml pre-incubated for 2 hrs followed by thapsigargin addition for 22 hrs by MTT assay. Type of experiment: functional, cell-based. Particulars: dose 10-100 µg/ml, time 24.0 hrs; call rule not given here.
Experiment [2] concerns N2a. Put plainly: Neuroprotective activity against tunicamycin-induced ER stress in mouse Neuro2a cells assessed as cell viability at 10 to 100 ug/ml pre-incubated for 2 hrs followed by tunicamycin addition for 22 hrs by MTT assay. The format is functional, cell-based. The conditions noted are these: dose 10-100 µg/ml, time 24.0 hrs. (Tetrazolium assays rely on reduction of a dye to a coloured formazan, in cell work by metabolically active cells.)

Take `CCCCCCCCCCCCCCCC(=O)OCc1cc(OC)c2c(c1C=O)OC(/C(C)=C/C(=O)C=C(C)C)C2` (racemic): the Activity result with N2a [1] and in the experiment on N2a [2] was “Active; Significant Protective Activity” throughout.
Take `CCCCCCCCCCCCCCCC(=O)OCc1cc(OC)c2c(c1C=O)OC(/C(C)=C\C(=O)C=C(C)C)C2` (racemic): the Activity entry with N2a [1] and in the experiment on N2a [2] was “Active; Significant Protective Activity” each time.
For `CCCCCCCCCCCCCCCC(=O)OCc1cc(OC)c(C[C@H]2O[C@]2(C)CC(=O)C=C(C)C)c(O)c1C=O` (racemic), the Activity result in the experiment on N2a [1] and in the experiment with N2a [2] was “Not active; No Protective Activity” in each case.
